# Earlier results, collected in patent US20230235017A1, “A DRUG SCREENING PLATFORM FOR ENDOSOMAL ENHANCERS TO TREAT ALZHEIMER'S DISEASE” (Aarhus Universitet, priority 2020, published 2023).
# Tested on: endosomal activity
# Settings: shown in the literature (Mecozzi 2014); cited from earlier work
smiles,measurement,value
N=C(N)SCc1ccc(CSC(=N)N)s1 [R55],effect on endosomal activity,have an effect on endosomal activity
